According to ChEMBL document CHEMBL3046190, “Acid promoted intramolecular formation of 3,5-anhydro-1,4-furano-7-ulose derivatives via the Wittig-cyclization procedure and their antimicrobial properties” (2013):
In brackets after ≈: the same amount, converted by molar mass. Activity calls are given as the source filed them. The rule behind the calls is not given here.

What was measured:
Staphylococcus aureus = assay: Antimicrobial activity against Staphylococcus aureus ATCC 6538-P assessed as growth inhibition after 24-48 hr by broth microdilution technique; type: functional
Escherichia coli = assay: Antimicrobial activity against Escherichia coli ATCC […] assessed as growth inhibition after 24-48 hr by broth microdilution technique; type: functional
Bacillus subtilis = assay: Antimicrobial activity against Bacillus subtilis ATCC 6633 assessed as growth inhibition after 24-48 hr by broth microdilution technique; type: functional
Pseudomonas aeruginosa = assay: Antimicrobial activity against Pseudomonas aeruginosa ATCC 27853 assessed as growth inhibition after 24-48 hr by broth microdilution technique; type: functional
Klebsiella pneumoniae = assay: Antimicrobial activity against Klebsiella pneumoniae CCM 2318 assessed as growth inhibition after 24 to 48 hr by broth microdilution technique; type: functional
Enterococcus faecalis = assay: Antimicrobial activity against Enterococcus faecalis ATCC 29212 assessed as growth inhibition at 0.005 to 5 mg/ml after 24-48 hr by broth microdilution technique; type: functional, organism-based
Salmonella typhimurium = assay: Antimicrobial activity against Salmonella enterica subsp. enterica serovar Typhimurium CCM 5445 assessed as growth inhibition after 24-48 hr by broth microdilution technique; type: functional
Candida albicans = assay: Antimicrobial activity against Candida albicans ATCC 10239 assessed as growth inhibition after 24-48 hr by broth microdilution technique; type: functional

| SMILES | MIC (Staphylococcus aureus) | MIC (Escherichia coli) | MIC (Bacillus subtilis) | MIC (Pseudomonas aeruginosa) | MIC (Klebsiella pneumoniae) | growth inhibition (GI) (Enterococcus faecalis) | MIC (Salmonella typhimurium) | MIC (Candida albicans) |
| --- | --- | --- | --- | --- | --- | --- | --- | --- |
| COC(C)(CC1O[C@H]2[C@H]3O[C@H](C(Cl)(Cl)Cl)O[C@H]3O[C@H]12)OC (stereo partly drawn) | inactive | 250 µg/mL (≈ 0.688 mM) | 500 µg/mL (≈ 1.38 mM) | 500 µg/mL (≈ 1.38 mM) | 2500 µg/mL (≈ 6.88 mM) | inactive | inactive | inactive |
| COC(C)(CC1O[C@H]2[C@H]3O[C@@H](C(Cl)(Cl)Cl)O[C@H]3O[C@H]12)OC (stereo partly drawn) | inactive | 500 µg/mL (≈ 1.38 mM) | 2500 µg/mL (≈ 6.88 mM) | 500 µg/mL (≈ 1.38 mM) | 2500 µg/mL (≈ 6.88 mM) | inactive | inactive | inactive |
| CC(=O)Cc1ccc(C=O)o1 [5-ACETYLMETHYL-FURFURAL] | inactive | 500 µg/mL (≈ 3.29 mM) | 500 µg/mL (≈ 3.29 mM) | 500 µg/mL (≈ 3.29 mM) | 2500 µg/mL (≈ 16.4 mM) | inactive | 750 µg/mL (≈ 4.93 mM) | 2500 µg/mL (≈ 16.4 mM) |
| COC(C)(CC1O[C@@H]2[C@H]3OC(C)(C)O[C@H]3O[C@H]12)OC (stereo partly drawn) | inactive | inactive | inactive | inactive | inactive | inactive | inactive | inactive |
| COC(C)(CC1O[C@@H]2[C@H]3O[C@@H](C(Cl)(Cl)Cl)O[C@H]3O[C@H]12)OC (stereo partly drawn) | inactive | 500 µg/mL (≈ 1.38 mM) | 500 µg/mL (≈ 1.38 mM) | 500 µg/mL (≈ 1.38 mM) | inactive | inactive | inactive | inactive |
| COC(C)(CC1O[C@H]2[C@H]3OC(C)(C)O[C@H]3O[C@H]12)OC (stereo partly drawn) | 3500 µg/mL (≈ 12.8 mM) | inactive | 1500 µg/mL (≈ 5.47 mM) | 750 µg/mL (≈ 2.73 mM) | inactive | inactive | 750 µg/mL (≈ 2.73 mM) | inactive |
